Values quoted from earlier work, collected in patent US20220409679A1, “COMPOSITIONS AND METHODS WITH A PROBIOTIC AND A NUTRIENT AND/OR MINERAL FOR THE PREVENTION OR TREATMENT OF MASTITIS” (SOCIETE DES PRODUITS NESTLE S.A., priority 2019, published 2022).

Tests used:
mastitis in cows = details: O'Rourke 2009; for symptoms associated with mastitis: supplementation
[1] = O'Rourke 2009

[Zn] [zinc]
immune system (mastitis in cows): enhance the immune system | symptoms associated with mastitis (mastitis in cows): reduce mastitis symptoms in cows

[Se] [selenium]
symptoms associated with mastitis (mastitis in cows): improves symptoms associated with mastitis in cows | antibacterial activity in milk [1]: improves antibacterial activity in milk

[Cu] [copper]
immune system (mastitis in cows): enhance the immune system | symptoms associated with mastitis (mastitis in cows): reduce mastitis symptoms in cows
